In data set [1] the test system is swelling-induced Cl ion current in cultured human aortic and coronary vascular smooth muscle cells. Kind of data set: Whole-cell voltage-clamp of swelling-induced chloride current. The format is cell-based. The following applies: for Effect on swelling-induced Cl current: hypotonic conditions, whole-cell patch clamp, β-estradiol 10^−7 M, H-7 10^−5 M. How it is done: Electrophysiology. Chloride ion currents were measured from cultured human aortic and coronary vascular smooth muscle cells at room temperature (22-24° C. using standard whole-cell voltage-clamp techniques (Hamill et al., 1981; Lamb et al., 1994) and an Axopatch 200B patch-clamp amplifier driven by pClamp software (Axon Instruments). The hypotonic (250 mOsm/kg by freezing point depression) bath solution contained (mM): NaCl 125, MgCl2 2.5, CaCl2 2.5, HEPES 10, pH 7.2. Isotonic bath solution had the same ionic composition as the hypotonic solution except that the osmolality was adjusted to 300 mOsm/kg by adding mannitol. Pipette solution contained (mM): N′-methyl-D-glucamine chloride (NMDG—Cl) 135, EGTA 2, Mg-ATP 5, HEPES 10, pH 7.2 with osmolality adjusted to 300 mOsm/kg by adding mannitol. Thus, the chloride equilibrium potential remained 0 mV under both isotonic and hypotonic conditions. All components of the buffer solutions were obtained from Sigma. Pipette resistances were 3-5 MOhms.
In general terms: The patch-clamp technique gives a direct electrical read-out from membranes.

Data set [2] has as its system Clcn3 knockout, heterozygous and wild type mice. Kind of data set: Pentylenetetrazole-induced seizure susceptibility. The format is in vivo, mouse. To be noted: PTZ 70 mg/kg i.p. How it is done: The proconvulsant, pentylenetetrazole (PTZ), was dissolved at 7 mg/ml in sterile 0.9% NaCl and administered to drug-naive mice at 70 mg/kg i.p. in a quiet daytime laboratory setting. Parameters measured during the 15-minute observation period included time to onset of generalized tonic-clonic or tonic seizures, and duration of the first generalized seizure. Lethality was assessed 60 minutes post-injection (Loscher and Nolting, 1991).

For data set [3], the system named is ion channel responsible for swelling-induced chloride conductance (CLC3). To be noted: Duan et al. 1997; Nilius et al. 1994; cited from earlier work.
Data set [4] has as its system isolated rings of rat aorta. The following applies: vasculature with intact endothelium; Lamb and Barna 1998; cited from earlier work.
Data set [5] deals with rat thoracic aorta rings (vascular smooth muscle), intact or denuded endothelium. Briefly: KCl-induced contraction of isolated aortic rings, isometric tension. The following applies: 10 μM tamoxifen, FIG. 3. How it is done: Adult male Sprague-Dawley rats (250-300 g) were obtained from Harlan Sprague Dawley. The animals were killed by exposure to 100% CO2 for 5 minutes, followed by cervical dislocation. Thoracic aortas were removed, cleaned of adherent connective tissue, and cut into 6 mm rings. The endothelium was left intact, and the rings were mounted in individual 10 ml isolated organ chambers using standard methods for recording of isometric tension. Contractile responses were recorded with an eight-channel MacLab8E and stored on a Power Macintosh 7200 computer. Passive stretch was set at 2.5 g, and the rings were allowed to equilibrate in physiological salt solution (PSS) at 37° C. for 120 minutes before the start of experimentation. PSS was aerated with a mixture of […]; the composition was as follows (in mM): 130 NaCl, 4.7 KCl, 1.18 KH2PO4, 1.17 MgSO47H2O, 14.9 NaHCO3, 1.6 CaCl2H2O, 5.5 dextrose, and 0.03 CaNa2-EDTA 0.03 (pH 7.30).
Data were expressed as a percentage of the maximal response of each ring to the agonist.
• 1. Intact and denuded aortic blood vessel segments were prepared and mounted as described in Example 1. • 2. […] Cl (Sigma Chemical, St. Louis, Mo.), was applied to the vessels at 2, 4, 8, 12, 16, 20, 28, 40, 60, 80, and 100 mM concentrations, and the contractile response measured as described above.

Data set [6] has the same test system. Kind of data set: Norepinephrine-induced contraction of isolated aortic rings, isometric tension. To be noted: 10 μM tamoxifen, FIG. 2.
Experimental: Adult male Sprague-Dawley rats (250-300 g) were obtained from Harlan Sprague Dawley. The animals were killed by exposure to 100% CO2 for 5 minutes, followed by cervical dislocation. Thoracic aortas were removed, cleaned of adherent connective tissue, and cut into 6 mm rings. The endothelium was left intact, and the rings were mounted in individual 10 ml isolated organ chambers using standard methods for recording of isometric tension. Contractile responses were recorded with an eight-channel MacLab8E and stored on a Power Macintosh 7200 computer. Passive stretch was set at 2.5 g, and the rings were allowed to equilibrate in physiological salt solution (PSS) at 37° C. for 120 minutes before the start of experimentation. PSS was aerated with a mixture of 95% 2-5% CO2; the composition was as follows (in mM): 130 NaCl, 4.7 KCl, 1.18 KH2PO4, 1.17 MgSO47H2O, 14.9 NaHCO3, 1.6 CaCl2H2O, 5.5 dextrose, and 0.03 CaNa2-EDTA 0.03 (pH 7.30).
Intact and denuded aortic blood vessel segments were prepared, mounted as described in Example 1. • 2. […] Aliquots of NE (Sigma Chemical, St. Louis, Mo.), which had been dissolved directly into aqueous solution was applied to the vessel segments at concentrations between 10^−10 and 10^−5 M, and the contractile response measured as described above.
In data set [7] the test system is isolated rings of rat aorta. Kind of data set: Contractile response to ED80 norepinephrine or KCl in isolated rings of rat aorta (earlier studies, Lamb and Barna 1998). To be noted: for Vasodilator effect in the presence of NE or KCl: denuded blood vessel segments; for Effect on contractile response to ED80 concentrations of NE or KCl: rings with intact endothelium. The text has this: The above experiments were reported in Lamb and Barna, Am. J. Physiol., 275 H151 (1998) and Lamb and Barna, Am. J. Physiol., 275, 161 (1998), and are incorporated herein by reference.

Data set [8] concerns isolated aortic rings from male wild-type, heterozygote and Clcn3 knockout mice. Briefly: Dose-response to norepinephrine in isolated mouse aortic rings. The following applies: L-NNA 10^−4 M, wild-type tissues, FIG. 17. How it is done:
Animals were sacrificed by exposure to 100% CO2 for five minutes followed by cervical dislocation. Thoracic aortae were removed, cleaned of adherent connective tissue and cut into 4 rings. […] Contractile responses were recorded using a MacLab 8E and stored on a Power MacIntosh 6400/200 computer. Passive stretch was set at 5.0 mN and the rings were allowed to equilibrate in Physiologic Salt Solution (PSS) at 37° C. for 60 minutes prior to the start of experimentation.

Data set [9] deals with Clcn3^−/− mice. Kind of data set: Recovery from sedatives in adult Clcn3-/- mice.
In data set [10] the test system is erectile function. The following applies: cited from earlier work.

SMILES strings stand for the structures.

In the case of `CC1CNCCN1S(=O)(=O)c1cccc2cnccc12` (stereo not drawn) [H-7], in data set [1], the “Effect on swelling-induced Cl current” value is “increased”.

Turning to `C1CCc2nnnn2CC1` [PTZ, pentylenetetrazole], the “Mice with generalized seizures” value in data set [2] (Clcn3^+/+ mice (7/8)) is recorded as 87.5%; in data set [2] (Clcn3^+/− mice (13/15), 4-5 weeks old), 86.7%. Also, the figures for the “Onset of generalized seizures” value in data set [2] (Clcn3^+/+ mice) and in [2] (Clcn3^+/− mice) were 280 ± 112 s and 215 ± 56 s, respectively. Moreover, the “Mice with seizure activity” value in data set [2] (Clcn3^−/− mice (1/8)) came to 12.5%. Besides, in [2] (Clcn3^−/− mice), the “Onset of seizure activity” value was determined as 58 s.

As to `CC/C(=C(\c1ccccc1)c1ccc(OCCN(C)C)cc1)c1ccccc1` [tamoxifen, 1-p-β-dimethylaminoethoxyphenyl-trans-1,2-diphenylbut-1-ene], the “Block of ion channel responsible for swelling-induced chloride conductance” value in [3] was “block”. In data set [4], the “Effect on norepinephrine-induced contraction of normal vasculature” value is on record as “no effect”. In [1] (hypotonic + H7 (10^−5 M) + tamoxifen, n=3, hypotonic 1204±313 pA), the Swelling-induced chloride current stood at 878±493 pA. Moreover, the “Effect on swelling-induced Cl current” value in data set [1] is reported as “inhibited”. The “Effect on KCl sensitivity/contractility of denuded vessel segments” value in data set [5] is recorded as “corrects the increase in vascular smooth muscle sensitivity to KCl”. Also, the “Effect on NE sensitivity/contractility of endothelially compromised (denuded) vessel segments” value in data set [6] is “shifts the dose-response curve of NE back to the right”.

For the compound `O=C(O)c1cccnc1Nc1cccc(C(F)(F)F)c1` [niflumic acid], in data set [7], the “Vasodilator effect in the presence of NE or KCl” value is “persisted” and the “Effect on contractile response to ED80 concentrations of NE or KCl” value is listed as “significantly inhibited”.

With `O=S(=O)(O)c1cc(N=C=S)ccc1C=Cc1ccc(N=C=S)cc1S(=O)(=O)O` [DIDS, 4,4′-diisothiocyanato stilbene-2,2′disulphonic acid], in [7], the “Vasodilator effect in the presence of NE or KCl” value was “persisted” and the “Effect on contractile response to ED80 concentrations of NE or KCl” value is “significantly inhibited”.

Take `C[C@]12CC[C@@H]3c4ccc(O)cc4CC[C@H]3[C@@H]1CC[C@@H]2O` [β-estradiol]: in data set [1] (hypotonic plus estradiol 10^−7 M, +120 mV, n=5, hypotonic only 1451±495 pA), the “Swelling-induced Cl current (ICl)” value amounted to 3513±856 pA.

In the case of `NC(=NCCC[C@H](N)C(=O)O)N[N+](=O)[O-]` [L-NNA], the “Responsiveness to norepinephrine when endothelial nitric oxide synthase is inhibited” value in [8] is reported as “increase in responsiveness”.

Consider `CCCC(C)C1(CC)C(=O)NC(=O)NC1=O` (stereo not drawn) [pentobarbital], for which the “Recovery time from sedation” value in data set [9] is listed as “prolonged recovery time”. Moreover, the Incidence of death result in data set [9] (even at reduced doses) is “increased incidence of death”.

With `CN1CCc2cccc3c2[C@H]1Cc1ccc(O)c(O)c1-3` [apomorphine], the “Men returned to sexual potency” value in data set [10] (men whose dysfunction had psychological origins) is “about 70%”. The “Time to response following administration” value in [10] (sublingual) was 20 to 40 min.

Turning to `Cc1ncc2n1-c1ccc(Cl)cc1C(c1ccccc1F)=NC2` [midazolam], the “Recovery time from sedation” value in data set [9] is recorded as “prolonged recovery time”.

These data come from patent publication US7393864B2, “Use of ClC3 chloride channel blockers to modulate vascular tone” (University of Iowa Research Foundation, priority 1999, dated 2008).
